Results published in paper PMC7316778 (Nature Communications, 2020).
Several values for one entry are separate records, joined by “and”; a condition that tells them apart may be missing. Identical values can stand only once. Like-named read-outs stand apart in the source and are kept apart here.

Assays:
[1] = target: MARK2 (Homo sapiens, UniProt Q7KZI7); test: SelectScreen kinase assay
Procedure: (§1) Selectivity profiling assays were performed by the Invitrogen SelectScreen™ Services. […] The concentration of ATP was selected to be equal to the KM, unless indicated otherwise.

[2] = target: MAP4K4 (HGK) (Homo sapiens, UniProt O95819); test: SelectScreen kinase assay; conditions: 1 h, 1 μM WEL028, 1 h preincubation
Procedure: as §1

[3] = target: TEK (Tie2) (Homo sapiens, UniProt Q02763); test: SelectScreen kinase assay
TEK (Tie2), sequence (Q02763 23-1124): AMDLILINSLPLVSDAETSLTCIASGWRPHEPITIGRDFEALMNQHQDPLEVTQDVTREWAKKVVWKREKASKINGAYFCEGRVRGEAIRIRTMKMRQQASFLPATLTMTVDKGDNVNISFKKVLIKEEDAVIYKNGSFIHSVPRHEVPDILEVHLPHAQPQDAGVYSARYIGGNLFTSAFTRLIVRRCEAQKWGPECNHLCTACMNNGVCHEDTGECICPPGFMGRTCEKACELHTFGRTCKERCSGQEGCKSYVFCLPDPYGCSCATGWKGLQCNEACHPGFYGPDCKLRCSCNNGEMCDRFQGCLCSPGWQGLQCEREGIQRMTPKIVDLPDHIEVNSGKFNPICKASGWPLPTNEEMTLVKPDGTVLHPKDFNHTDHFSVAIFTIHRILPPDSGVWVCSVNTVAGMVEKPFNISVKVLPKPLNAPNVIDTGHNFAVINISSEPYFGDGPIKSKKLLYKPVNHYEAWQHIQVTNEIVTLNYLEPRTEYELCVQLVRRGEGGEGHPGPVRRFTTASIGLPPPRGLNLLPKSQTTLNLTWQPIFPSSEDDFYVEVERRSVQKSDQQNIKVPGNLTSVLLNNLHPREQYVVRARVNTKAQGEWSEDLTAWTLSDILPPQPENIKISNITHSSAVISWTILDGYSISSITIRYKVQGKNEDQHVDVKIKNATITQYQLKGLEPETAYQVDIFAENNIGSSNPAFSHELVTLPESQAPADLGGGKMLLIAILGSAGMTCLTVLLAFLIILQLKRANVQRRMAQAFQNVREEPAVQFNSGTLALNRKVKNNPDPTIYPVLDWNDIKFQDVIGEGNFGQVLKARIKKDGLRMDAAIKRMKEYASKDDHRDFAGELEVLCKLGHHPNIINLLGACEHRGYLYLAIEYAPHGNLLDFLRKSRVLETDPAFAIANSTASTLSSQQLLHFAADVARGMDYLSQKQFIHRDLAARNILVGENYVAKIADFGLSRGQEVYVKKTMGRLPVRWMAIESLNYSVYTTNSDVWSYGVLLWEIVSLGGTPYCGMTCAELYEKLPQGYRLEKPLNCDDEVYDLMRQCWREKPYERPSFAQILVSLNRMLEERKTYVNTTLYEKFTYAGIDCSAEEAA
Procedure: as §1

[4] = target: PLK2 (Homo sapiens, UniProt Q9NYY3); test: SelectScreen kinase assay
PLK2, sequence (Q9NYY3 whole entry): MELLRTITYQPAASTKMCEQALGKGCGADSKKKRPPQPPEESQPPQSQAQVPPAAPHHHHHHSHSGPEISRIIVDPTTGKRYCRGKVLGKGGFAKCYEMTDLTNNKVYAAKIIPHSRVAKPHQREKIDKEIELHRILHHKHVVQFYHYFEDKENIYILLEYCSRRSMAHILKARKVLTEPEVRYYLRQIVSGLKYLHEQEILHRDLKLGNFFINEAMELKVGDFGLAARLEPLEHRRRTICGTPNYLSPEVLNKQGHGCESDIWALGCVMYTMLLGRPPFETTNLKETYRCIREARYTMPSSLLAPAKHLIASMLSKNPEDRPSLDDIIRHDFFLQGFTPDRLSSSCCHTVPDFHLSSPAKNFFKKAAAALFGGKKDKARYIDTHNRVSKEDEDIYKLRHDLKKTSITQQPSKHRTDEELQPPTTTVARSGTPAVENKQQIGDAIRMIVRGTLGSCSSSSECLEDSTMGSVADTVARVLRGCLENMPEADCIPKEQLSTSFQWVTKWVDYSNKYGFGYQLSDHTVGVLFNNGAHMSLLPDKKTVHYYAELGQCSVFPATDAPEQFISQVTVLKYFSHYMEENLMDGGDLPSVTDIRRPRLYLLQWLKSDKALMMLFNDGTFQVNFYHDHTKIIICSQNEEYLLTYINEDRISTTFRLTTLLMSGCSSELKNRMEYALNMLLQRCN
Procedure: as §1

[5] = target: SIK1 (Homo sapiens, UniProt P57059); test: SelectScreen kinase assay
SIK1, sequence (P57059 whole entry): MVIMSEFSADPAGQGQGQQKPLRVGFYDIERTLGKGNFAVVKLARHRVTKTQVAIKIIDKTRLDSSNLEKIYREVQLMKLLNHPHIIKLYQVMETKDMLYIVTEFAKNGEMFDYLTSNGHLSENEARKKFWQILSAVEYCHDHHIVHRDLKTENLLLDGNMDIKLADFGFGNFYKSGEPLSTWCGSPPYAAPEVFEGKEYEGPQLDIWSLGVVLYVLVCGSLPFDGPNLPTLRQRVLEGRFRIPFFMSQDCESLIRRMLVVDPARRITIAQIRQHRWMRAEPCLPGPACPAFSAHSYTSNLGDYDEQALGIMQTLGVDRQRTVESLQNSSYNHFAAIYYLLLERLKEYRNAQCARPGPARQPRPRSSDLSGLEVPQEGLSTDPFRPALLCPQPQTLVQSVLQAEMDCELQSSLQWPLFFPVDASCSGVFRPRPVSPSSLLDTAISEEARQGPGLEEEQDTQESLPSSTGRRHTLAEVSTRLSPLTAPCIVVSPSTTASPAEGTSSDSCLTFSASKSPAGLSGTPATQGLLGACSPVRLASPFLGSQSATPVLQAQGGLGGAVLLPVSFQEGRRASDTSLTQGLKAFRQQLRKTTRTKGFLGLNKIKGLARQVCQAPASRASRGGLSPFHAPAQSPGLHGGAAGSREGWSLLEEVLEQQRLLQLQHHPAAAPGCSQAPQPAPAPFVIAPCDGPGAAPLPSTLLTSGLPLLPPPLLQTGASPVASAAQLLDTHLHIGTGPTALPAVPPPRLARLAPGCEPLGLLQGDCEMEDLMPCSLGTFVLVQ
Procedure: as §1

[6] = target: INSRR (IRR) (Homo sapiens, UniProt P14616); test: SelectScreen kinase assay; conditions: 1 h, 1 μM WEL028, 1 h preincubation
Procedure: as §1

[7] = target: RPS6KA4 (MSK2) (Homo sapiens, UniProt O75676); test: SelectScreen kinase assay
RPS6KA4 (MSK2), sequence (O75676 whole entry): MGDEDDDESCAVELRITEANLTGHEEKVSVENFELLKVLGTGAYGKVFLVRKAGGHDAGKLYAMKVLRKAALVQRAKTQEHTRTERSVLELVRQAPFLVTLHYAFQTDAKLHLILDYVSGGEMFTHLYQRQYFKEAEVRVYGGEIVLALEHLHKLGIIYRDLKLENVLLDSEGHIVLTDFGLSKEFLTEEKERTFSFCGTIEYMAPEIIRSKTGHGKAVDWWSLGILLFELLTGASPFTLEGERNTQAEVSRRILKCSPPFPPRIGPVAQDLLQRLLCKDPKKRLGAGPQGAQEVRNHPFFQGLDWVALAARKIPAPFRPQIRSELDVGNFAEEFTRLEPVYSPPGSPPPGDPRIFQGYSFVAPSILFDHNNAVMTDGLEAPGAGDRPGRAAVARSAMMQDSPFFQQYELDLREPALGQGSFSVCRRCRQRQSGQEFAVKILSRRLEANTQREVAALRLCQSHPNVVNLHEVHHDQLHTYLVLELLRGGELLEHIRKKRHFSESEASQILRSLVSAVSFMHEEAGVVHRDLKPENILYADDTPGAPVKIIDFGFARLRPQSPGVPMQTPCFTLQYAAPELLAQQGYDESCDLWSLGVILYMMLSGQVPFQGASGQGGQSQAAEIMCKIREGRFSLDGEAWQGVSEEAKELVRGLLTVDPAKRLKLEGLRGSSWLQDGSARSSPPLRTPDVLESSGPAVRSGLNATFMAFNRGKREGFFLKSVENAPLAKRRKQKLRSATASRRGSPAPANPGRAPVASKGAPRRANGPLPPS
Procedure: as §1

[8] = target: full-length FES^S700C (Homo sapiens, UniProt P07332, S700C); test: Competitive probe labeling with WEL033 in HEK293T lysate (gel-based)
[9] = target: CDC7/DBF4 (Homo sapiens, UniProt O00311); test: SelectScreen kinase assay
Procedure: as §1

[10] = target: T1, TNK1 (Homo sapiens, UniProt Q13470); test: SelectScreen kinase assay
T1 sequence (Q13470 1-666): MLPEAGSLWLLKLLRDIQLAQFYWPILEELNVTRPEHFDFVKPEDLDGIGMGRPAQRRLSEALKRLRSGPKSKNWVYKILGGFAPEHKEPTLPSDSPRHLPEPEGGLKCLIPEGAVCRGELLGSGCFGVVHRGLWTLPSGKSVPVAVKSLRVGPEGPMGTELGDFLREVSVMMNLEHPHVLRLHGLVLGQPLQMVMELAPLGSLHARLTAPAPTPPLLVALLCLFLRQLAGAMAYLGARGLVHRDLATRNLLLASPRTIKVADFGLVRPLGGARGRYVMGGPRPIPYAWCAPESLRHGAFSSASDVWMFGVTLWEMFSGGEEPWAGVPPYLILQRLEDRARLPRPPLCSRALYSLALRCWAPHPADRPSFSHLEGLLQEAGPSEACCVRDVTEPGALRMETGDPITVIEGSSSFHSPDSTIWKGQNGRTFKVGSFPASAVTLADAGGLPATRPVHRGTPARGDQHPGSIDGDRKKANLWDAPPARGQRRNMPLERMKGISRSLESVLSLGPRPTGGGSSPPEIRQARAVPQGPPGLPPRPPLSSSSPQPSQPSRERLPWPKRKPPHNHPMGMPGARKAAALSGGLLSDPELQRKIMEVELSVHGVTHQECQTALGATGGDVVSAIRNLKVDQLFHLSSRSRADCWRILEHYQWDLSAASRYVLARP
Procedure: as §1

[11] = target: T2, PRKCZ (PKC zeta) (Homo sapiens, UniProt Q05513); test: SelectScreen kinase assay; conditions: for Inhibition at 1 µM (%): PRKCZ (PKC zeta), ZLYTE, ATP Km app
T2 sequence (Q05513 1-592): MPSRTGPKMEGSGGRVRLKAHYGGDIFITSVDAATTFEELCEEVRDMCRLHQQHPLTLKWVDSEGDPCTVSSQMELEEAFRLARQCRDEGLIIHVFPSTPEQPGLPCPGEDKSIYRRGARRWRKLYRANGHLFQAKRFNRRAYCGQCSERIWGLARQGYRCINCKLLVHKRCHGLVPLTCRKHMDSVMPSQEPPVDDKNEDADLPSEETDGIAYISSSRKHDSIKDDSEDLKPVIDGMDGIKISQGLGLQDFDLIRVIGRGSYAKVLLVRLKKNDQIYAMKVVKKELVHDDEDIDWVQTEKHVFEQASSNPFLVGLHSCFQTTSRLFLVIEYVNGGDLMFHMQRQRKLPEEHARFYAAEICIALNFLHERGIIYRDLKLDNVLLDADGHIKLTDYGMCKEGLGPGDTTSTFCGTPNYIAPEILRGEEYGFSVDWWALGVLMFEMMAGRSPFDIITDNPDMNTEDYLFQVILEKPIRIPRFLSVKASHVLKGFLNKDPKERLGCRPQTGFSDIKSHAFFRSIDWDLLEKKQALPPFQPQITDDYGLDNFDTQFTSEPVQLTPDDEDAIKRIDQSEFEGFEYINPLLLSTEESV
Procedure: as §1

[12] = target: MLK4 (Homo sapiens, UniProt Q5TCX8); test: SelectScreen kinase assay
MLK4, sequence (Q5TCX8 whole entry): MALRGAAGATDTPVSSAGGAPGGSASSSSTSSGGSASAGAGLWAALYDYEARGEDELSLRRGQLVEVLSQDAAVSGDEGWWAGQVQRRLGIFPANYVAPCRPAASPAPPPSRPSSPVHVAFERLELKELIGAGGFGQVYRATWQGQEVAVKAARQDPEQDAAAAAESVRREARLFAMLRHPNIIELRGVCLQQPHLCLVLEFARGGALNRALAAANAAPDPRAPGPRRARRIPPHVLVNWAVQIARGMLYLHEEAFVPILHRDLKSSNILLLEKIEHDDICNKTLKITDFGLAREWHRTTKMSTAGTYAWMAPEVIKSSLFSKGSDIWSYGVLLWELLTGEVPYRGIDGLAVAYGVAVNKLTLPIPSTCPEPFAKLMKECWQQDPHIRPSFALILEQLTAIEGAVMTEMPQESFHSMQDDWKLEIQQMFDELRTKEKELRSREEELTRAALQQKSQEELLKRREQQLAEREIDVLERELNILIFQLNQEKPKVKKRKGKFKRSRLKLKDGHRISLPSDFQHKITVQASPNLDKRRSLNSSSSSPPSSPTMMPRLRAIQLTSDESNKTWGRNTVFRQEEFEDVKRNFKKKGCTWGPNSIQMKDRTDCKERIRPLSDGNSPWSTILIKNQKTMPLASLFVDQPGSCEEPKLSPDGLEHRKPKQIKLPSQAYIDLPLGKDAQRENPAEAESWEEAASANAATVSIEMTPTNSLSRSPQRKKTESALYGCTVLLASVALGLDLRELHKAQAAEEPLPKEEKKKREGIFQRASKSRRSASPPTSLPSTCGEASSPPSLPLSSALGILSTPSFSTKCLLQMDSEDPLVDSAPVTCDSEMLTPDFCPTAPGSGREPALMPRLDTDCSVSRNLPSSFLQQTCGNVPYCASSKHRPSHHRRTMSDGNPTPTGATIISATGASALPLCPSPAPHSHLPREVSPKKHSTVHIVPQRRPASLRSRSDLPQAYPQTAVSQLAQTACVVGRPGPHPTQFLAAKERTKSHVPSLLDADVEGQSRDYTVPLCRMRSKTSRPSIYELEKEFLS
Procedure: as §1

[13] = target: LYN A (Homo sapiens, UniProt P07948); test: SelectScreen kinase assay
LYN A, sequence (P07948 whole entry): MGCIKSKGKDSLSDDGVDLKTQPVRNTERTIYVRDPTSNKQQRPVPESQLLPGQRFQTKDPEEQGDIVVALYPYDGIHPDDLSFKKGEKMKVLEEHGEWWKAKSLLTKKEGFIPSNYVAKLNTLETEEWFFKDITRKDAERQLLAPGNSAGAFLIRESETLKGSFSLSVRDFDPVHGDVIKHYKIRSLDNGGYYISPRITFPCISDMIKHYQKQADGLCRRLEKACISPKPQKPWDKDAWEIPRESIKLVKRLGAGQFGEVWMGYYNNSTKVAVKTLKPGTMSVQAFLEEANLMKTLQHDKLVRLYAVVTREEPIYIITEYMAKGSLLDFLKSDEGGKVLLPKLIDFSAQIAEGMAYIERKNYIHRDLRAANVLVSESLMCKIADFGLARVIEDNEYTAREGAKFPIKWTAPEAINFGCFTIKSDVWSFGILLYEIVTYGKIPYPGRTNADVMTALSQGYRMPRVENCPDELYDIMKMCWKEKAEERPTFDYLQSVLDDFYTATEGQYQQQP
Procedure: as §1

[14] = target: T3, STK17B (DRAK2) (Homo sapiens, UniProt O94768); test: SelectScreen kinase assay
T3 sequence (O94768 1-372): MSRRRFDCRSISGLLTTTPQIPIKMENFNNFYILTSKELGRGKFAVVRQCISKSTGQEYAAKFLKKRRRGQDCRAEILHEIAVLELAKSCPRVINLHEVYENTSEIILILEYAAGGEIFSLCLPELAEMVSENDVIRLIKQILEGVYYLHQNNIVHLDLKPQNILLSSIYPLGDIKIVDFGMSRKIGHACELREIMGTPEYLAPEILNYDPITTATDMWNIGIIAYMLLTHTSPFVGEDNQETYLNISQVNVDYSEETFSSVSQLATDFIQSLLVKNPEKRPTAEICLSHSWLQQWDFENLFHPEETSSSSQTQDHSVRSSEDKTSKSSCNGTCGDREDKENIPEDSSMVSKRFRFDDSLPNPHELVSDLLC
Procedure: as §1

[15] = 1 h, 1 μM WEL028, 1 h preincubation
[16] = 1 µM, ZLYTE, ATP Km app, listed as WEL028, 1 µM
[17] = 1 µM, LanthaScreen Binding, listed as WEL028, 1 µM
[18] = read-out: Inhibition at 1 µM (%), 1 µM, LanthaScreen Binding

In the case of `C#CCOc1ccc(Nc2ncc(Cl)c(Nc3ccccc3NC(=O)C=C)n2)c(OC)c1` [Compound 6], the inhibition at 1 µM [1, 15] is reported as 8%, the “Inhibition at 1 µM (%)” value ([1]; MARK2, 1 µM, ZLYTE, ATP Km app, listed as WEL028, 1 µM) is reported as 9% and the inhibition at 1 µM ([1]; read-out: Inhibition at 1 µM (%), MARK2, 1 µM, ZLYTE, ATP Km app) is reported as 6%. For the same compound, the inhibition at 1 µM [2] was 7%, the “Inhibition at 1 µM (%)” value [3, 16] was 4% and 10% and the inhibition at 1 µM [3, 15] was 7%. The “Inhibition (%)” value ([4]; 1 μM WEL028, 1 h preincubation) was 12%, the “Inhibition at 1 µM (%)” value ([4]; PLK2, 1 µM, ZLYTE, ATP Km app, listed as WEL028, 1 µM) was 15% and the inhibition at 1 µM ([4]; read-out: Inhibition at 1 µM (%), PLK2, 1 µM, ZLYTE, ATP Km app) was 8%. The “Inhibition (%)” value ([5]; 1 μM WEL028, 1 h preincubation) was 5%, the “Inhibition at 1 µM (%)” value [5, 17] was 5% and the inhibition at 1 µM [5, 18] was 4%. The inhibition at 1 µM [6] was 9%, the “Inhibition at 1 µM (%)” value [7, 16] was -4% and 6% and the inhibition at 1 µM [7, 15] was 1%. The IC50 [8] was 0.0126 µM, the inhibition at 1 µM [9, 15] was 3% and the “Inhibition at 1 µM (%)” value ([9]; CDC7/DBF4, 1 µM, LanthaScreen Binding, listed as WEL028, 1 µM) was 6% and 1%. For the same compound, the “Inhibition at 1 µM (%)” value ([10]; 1 µM, ZLYTE, ATP Km app) was 41%, the inhibition at 1 µM ([10]; 1 h) was 41% and the inhibition at 1 µM ([10]; read-out: Inhibition at 1 µM (%)) was 41%. For the same compound, the inhibition at 1 µM [11, 15] was -1%, the “Inhibition at 1 µM (%)” value [11] was 3% and the “Inhibition at 1 µM (%)” value ([11]; listed as WEL028, 1 µM) was -5%. The inhibition at 1 µM [12, 15] was 3%, the “Inhibition at 1 µM (%)” value ([12]; MLK4, 1 µM, LanthaScreen Binding, listed as WEL028, 1 µM) was 6% and 0% and the inhibition at 1 µM [13, 15] was 5%. For the same compound, the “Inhibition at 1 µM (%)” value ([13]; LYN A, 1 µM, ZLYTE, ATP Km app, listed as WEL028, 1 µM) was 6%, the inhibition at 1 µM ([13]; read-out: Inhibition at 1 µM (%), LYN A, 1 µM, ZLYTE, ATP Km app) was 5% and the “Inhibition at 1 µM (%)” value [14, 17] was 8%. The inhibition at 1 µM [14, 15] was 9% and the inhibition at 1 µM [14, 18] was 9%.
